Like-named read-outs stand apart in the source and are kept apart here.
Assays:
Type in all cases: cell-based
[1] = target: EGFR(D770_N771insSVD) expressing Ba/F3 stable cell line (Homo sapiens, UniProt P00533, DUP768-770, cells depend on it); assay: Cellular proliferation (Alamar Blue) assay, EGFR D770_N771insSVD Ba/F3; settings: 72 hr, read-out: D770 IC50
Procedure, shortened: (§1)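 Ba/F3 stable lines (15,000 cells/well, RPMI + 10% FBS) seeded 16–18 h, then treated 72 h at 37 °C with compound, final 10–0.0005 μM in 3-fold dilutions. Viability read by Alamar Blue after 3 h incubation.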

[2] = target: EGFR (A767_dupASV) expressing Ba/F3 stable cell line (Homo sapiens, UniProt P00533, DUP767-769, cells depend on it); assay: Cellular proliferation (Alamar Blue) assay, EGFR A767_dupASV Ba/F3; settings: 72 hr, read-out: A767 IC50
Procedure, shortened: as §1

[3] = system: A431 cells; assay: Cellular proliferation (Alamar Blue) assay, A431
[4] = target: EGFR (H773insNPH) expressing Ba/F3 stable cell line (Homo sapiens, UniProt P00533, DUP771-773, cells depend on it); assay: Cellular proliferation (Alamar Blue) assay, EGFR H773insNPH Ba/F3; settings: 72 hr, read-out: NPH IC50
Procedure: • 1. EGFR(D770_N771insSVD) expressing Ba/F3 stable cell line • 2. EGFR (A767_dupASV) expressing Ba/F3 stable cell line • 3. A431 cells • 4. EGFR (H773insNPH) expressing Ba/F3 stable cell line • 5. HER2 (A775_G776insYVMA) expressing Ba/F3 stable cell line Assay Procedure: • 1. Seed cells at 5000 for A431 and 15,000 cells for Ba/F3 in 100 μL/well in complete media (for A431: DMEM with […] and for Ba/F3 cells: RPMI with 10% FBS) in 96-well tissue culture plate. Leave outer wells without cells for background measurements. Incubate at 37 degree Celsius in […] humidified incubator for 16-18 hours. • 2. Add 0.025 ml of 5× concentration compound dilution or DMSO control. Final compound concentration range is 10-0.0005 μM prepared in 3-fold serial dilutions. Incubate for 72 hr at 37 degree Celsius in […] humidified incubator. • 3. Add 0.0125 ml Alamar Blue™ reagent to each well with multi-channel pipette and tap gently on each side of the plate to mix. Incubate for 3 hours at 37 degree Celsius in 5% CO2 humidified incubator. • 4. […] Data analysis was performed using XLfit 5.5.0.5.

[5] = target: HER2 (A775_G776insYVMA) expressing Ba/F3 stable cell line (Homo sapiens, UniProt P04626, DUP772-775, cells depend on it); assay: Cellular proliferation (Alamar Blue) assay, HER2 A775_G776insYVMA Ba/F3; settings: 72 hr, read-out: YVMA IC50
Procedure, shortened: as §1

[6] = Homo sapiens, A-431; A431 cells, Alamar Blue, 72 hr; read-out: A431 IC50

EGFR (A767_dupASV) expressing Ba/F3 stable cell line, sequence (P00533 with tags, fused parts or gaps DUP767-769): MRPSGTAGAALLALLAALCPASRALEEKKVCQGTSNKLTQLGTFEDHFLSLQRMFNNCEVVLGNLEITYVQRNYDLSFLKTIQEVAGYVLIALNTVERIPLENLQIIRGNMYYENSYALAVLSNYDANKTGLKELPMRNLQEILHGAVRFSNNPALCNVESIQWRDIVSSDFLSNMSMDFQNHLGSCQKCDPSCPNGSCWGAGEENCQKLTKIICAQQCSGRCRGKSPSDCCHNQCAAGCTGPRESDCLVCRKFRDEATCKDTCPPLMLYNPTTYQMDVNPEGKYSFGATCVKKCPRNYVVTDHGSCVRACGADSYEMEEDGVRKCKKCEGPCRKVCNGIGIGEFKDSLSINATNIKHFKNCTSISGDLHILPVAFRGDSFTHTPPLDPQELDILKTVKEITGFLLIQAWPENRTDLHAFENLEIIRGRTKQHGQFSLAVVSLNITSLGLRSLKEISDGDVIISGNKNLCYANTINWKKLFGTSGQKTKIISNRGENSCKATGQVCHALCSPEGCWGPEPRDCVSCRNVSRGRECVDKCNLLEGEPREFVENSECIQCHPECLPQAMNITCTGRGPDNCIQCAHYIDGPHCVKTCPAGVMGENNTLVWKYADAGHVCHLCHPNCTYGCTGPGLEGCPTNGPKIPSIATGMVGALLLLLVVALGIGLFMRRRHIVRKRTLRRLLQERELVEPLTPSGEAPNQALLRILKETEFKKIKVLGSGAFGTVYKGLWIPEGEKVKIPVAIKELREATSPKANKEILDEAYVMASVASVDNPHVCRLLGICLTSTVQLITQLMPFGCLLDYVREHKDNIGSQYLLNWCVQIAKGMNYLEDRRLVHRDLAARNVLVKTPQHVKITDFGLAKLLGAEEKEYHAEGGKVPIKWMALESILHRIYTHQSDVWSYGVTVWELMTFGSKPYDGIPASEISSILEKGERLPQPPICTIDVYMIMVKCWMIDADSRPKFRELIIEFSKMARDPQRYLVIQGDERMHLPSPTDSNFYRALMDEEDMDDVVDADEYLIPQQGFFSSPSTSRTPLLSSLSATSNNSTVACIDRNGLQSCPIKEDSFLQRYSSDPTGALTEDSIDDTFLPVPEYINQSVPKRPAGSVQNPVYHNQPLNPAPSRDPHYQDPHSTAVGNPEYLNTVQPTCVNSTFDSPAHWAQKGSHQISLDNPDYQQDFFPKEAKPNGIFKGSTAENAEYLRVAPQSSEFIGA
EGFR (H773insNPH) expressing Ba/F3 stable cell line, sequence (P00533 with tags, fused parts or gaps DUP771-773): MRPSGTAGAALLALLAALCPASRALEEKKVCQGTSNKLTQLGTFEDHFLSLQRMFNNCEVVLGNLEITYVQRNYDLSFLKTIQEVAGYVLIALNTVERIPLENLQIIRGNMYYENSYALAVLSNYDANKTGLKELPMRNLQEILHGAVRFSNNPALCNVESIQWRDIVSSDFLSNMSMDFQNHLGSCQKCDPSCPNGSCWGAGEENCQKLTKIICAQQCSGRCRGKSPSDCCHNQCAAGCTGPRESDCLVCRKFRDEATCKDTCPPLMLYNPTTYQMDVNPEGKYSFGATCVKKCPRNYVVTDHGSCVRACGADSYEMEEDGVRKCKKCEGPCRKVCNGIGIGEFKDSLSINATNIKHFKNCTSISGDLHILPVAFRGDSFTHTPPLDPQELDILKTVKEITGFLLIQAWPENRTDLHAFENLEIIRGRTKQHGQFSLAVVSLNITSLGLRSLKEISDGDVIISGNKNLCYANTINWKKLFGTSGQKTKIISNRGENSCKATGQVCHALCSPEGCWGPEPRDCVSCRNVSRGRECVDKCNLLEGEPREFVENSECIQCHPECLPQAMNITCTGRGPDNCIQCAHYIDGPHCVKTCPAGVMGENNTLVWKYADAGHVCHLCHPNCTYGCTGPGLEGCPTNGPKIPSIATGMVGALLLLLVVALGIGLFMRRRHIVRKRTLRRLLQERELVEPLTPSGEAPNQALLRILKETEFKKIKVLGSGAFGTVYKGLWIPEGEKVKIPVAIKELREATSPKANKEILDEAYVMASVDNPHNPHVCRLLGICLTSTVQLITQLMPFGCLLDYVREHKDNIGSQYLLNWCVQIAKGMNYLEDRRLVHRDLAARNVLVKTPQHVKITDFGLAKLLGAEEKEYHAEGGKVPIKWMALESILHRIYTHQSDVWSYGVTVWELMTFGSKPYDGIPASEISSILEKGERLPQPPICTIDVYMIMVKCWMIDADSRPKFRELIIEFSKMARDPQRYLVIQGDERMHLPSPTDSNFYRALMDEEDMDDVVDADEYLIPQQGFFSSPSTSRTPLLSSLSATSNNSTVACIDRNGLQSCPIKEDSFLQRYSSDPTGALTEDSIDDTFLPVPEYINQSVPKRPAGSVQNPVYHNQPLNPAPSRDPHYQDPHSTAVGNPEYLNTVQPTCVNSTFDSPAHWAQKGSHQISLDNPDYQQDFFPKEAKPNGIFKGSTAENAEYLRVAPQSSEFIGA
EGFR(D770_N771insSVD) expressing Ba/F3 stable cell line, sequence (P00533 with tags, fused parts or gaps DUP768-770): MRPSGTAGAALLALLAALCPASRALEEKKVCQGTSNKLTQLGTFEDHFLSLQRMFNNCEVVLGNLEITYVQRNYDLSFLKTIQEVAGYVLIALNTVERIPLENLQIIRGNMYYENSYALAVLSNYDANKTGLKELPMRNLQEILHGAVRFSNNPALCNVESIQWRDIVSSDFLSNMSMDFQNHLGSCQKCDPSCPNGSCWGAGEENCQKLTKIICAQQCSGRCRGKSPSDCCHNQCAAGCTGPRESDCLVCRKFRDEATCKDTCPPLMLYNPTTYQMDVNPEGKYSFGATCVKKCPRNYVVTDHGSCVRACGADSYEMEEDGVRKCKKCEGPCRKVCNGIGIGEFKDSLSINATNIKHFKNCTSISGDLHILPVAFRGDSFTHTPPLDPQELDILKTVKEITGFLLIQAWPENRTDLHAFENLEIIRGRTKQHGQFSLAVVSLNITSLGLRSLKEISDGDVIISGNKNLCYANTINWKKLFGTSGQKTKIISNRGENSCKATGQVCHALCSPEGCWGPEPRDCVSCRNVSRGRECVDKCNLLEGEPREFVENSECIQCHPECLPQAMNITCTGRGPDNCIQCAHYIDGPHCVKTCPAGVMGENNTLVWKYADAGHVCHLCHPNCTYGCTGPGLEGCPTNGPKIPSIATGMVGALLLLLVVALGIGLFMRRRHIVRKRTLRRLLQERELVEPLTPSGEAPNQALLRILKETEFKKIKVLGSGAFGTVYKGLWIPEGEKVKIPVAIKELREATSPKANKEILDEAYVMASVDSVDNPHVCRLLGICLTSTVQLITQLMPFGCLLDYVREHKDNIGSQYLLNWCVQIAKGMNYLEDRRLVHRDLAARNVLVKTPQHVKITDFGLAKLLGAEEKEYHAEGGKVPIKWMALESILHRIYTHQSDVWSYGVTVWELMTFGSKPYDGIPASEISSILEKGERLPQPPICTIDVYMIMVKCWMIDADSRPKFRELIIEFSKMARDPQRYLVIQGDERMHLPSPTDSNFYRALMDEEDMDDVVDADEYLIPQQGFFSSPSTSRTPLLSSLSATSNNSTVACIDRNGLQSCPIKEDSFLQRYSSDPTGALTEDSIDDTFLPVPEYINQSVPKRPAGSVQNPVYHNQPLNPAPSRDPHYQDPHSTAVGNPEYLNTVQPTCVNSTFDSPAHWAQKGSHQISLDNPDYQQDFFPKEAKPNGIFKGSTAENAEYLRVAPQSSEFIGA
HER2 (A775_G776insYVMA) expressing Ba/F3 stable cell line, sequence (P04626 with tags, fused parts or gaps DUP772-775): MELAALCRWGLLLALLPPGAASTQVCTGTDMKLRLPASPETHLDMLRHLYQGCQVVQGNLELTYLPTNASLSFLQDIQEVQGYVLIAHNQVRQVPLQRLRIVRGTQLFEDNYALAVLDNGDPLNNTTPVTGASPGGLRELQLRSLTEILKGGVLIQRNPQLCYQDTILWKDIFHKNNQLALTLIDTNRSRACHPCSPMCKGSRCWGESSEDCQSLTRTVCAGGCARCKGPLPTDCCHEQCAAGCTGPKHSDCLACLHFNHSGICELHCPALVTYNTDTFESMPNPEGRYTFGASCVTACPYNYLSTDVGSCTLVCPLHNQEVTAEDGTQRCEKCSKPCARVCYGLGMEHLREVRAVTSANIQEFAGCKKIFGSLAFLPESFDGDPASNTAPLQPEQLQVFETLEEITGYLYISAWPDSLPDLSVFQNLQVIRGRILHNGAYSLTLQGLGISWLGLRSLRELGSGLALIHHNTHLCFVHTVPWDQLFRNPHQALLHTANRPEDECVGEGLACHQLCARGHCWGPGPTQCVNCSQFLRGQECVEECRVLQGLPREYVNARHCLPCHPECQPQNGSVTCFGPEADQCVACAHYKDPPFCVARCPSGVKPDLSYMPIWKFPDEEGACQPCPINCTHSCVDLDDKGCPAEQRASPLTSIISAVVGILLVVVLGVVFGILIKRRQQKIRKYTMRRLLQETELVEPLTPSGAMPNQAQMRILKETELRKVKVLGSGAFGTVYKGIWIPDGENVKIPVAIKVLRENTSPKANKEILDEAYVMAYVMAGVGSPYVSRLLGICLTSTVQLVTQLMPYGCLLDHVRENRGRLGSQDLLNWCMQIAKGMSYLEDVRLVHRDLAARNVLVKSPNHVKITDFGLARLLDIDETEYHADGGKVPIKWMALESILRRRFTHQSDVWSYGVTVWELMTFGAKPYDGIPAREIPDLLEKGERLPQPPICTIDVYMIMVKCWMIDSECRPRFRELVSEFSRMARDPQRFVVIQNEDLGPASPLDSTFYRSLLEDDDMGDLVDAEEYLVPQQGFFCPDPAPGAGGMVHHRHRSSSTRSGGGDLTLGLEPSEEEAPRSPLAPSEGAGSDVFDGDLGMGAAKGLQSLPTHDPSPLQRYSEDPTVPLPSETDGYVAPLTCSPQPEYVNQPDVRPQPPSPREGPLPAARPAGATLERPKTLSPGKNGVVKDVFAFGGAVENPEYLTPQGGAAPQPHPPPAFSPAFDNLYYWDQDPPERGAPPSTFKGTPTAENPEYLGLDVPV

| SMILES | GI50 [1] [µM] | GI50 [2] [µM] | IC50 [3, 6] [µM] | GI50 [4] [µM] | GI50 [5] [µM] | IC50 ([3]; Homo sapiens, A-431; A431 cells, 72 hr, Alamar Blue; read-out: A431 IC50) [µM] |
| --- | --- | --- | --- | --- | --- | --- |
| C=CC(=O)Nc1ccc(F)c(Nc2nc(Nc3cnn(C4CCC(O)CC4)c3)ncc2Cl)c1 (stereo not drawn) [Compound 1, N-(3-((5-chloro-2-((1-(4-hydroxycyclohexyl)-1H-pyrazol-4-yl)amino)pyrimidin-4-yl)amino)-4-fluorophenyl)acrylamide] | 1.03 | 0.93 | 3.92 | 0.796 |  |  |
| C=CC(=O)Nc1ccc(F)c(Nc2nc(Nc3ccc(OC)nc3)ncc2Cl)c1 [Compound 22, N-(3-((5-chloro-2-((6-methoxypyridin-3-yl)amino)pyrimidin-4-yl)amino)-4-fluorophenyl)acrylamide] | 7.95 | 3 | 7.1 | 4.74 |  |  |
| C=C(F)C(=O)Nc1ccc(F)c(Nc2nc(Nc3cnn(C)c3)ncc2Cl)c1 [Compound 23, N-(3-((5-chloro-2-((1-methyl-1H-pyrazol-4-yl)amino)pyrimidin-4-yl)amino)-4-fluorophenyl)-2-fluoroacrylamide] | > 10 | 9.92 | > 10 | 4.47 |  |  |
| C=C(F)C(=O)NC1CCCC(Nc2nc(Nc3cnn(C)c3)ncc2Cl)C1 (stereo not drawn) [Compound 24] | > 10 | > 10 | > 10 | 4.13 |  |  |
| C=C(F)C(=O)N1CCCC(Nc2nc(Nc3cnn(C)c3)ncc2Cl)C1 (stereo not drawn) [Compound 25, 1-(3-((5-chloro-2-((1-methyl-1H-pyrazol-4-yl)amino)pyrimidin-4-yl)amino)piperidin-1-yl)-2-fluoroprop-2-en-1-one] | > 10 | > 10 | > 10 | > 10 |  |  |
| C=CC(=O)Nc1ccc(F)c(Nc2nc(Nc3cnn(CC(C)(C)O)c3)ncc2Cl)c1 [Compound 26, N-(3-((5-chloro-2-((1-(2-hydroxy-2-methylpropyl)-1H-pyrazol-4-yl)amino)pyrimidin-4-yl)amino)-4-fluorophenyl)acrylamide] | 4.86 | 2.45 | 7.41 | 2.09 |  |  |
| C=CC(=O)Nc1cccc(Nc2nc(Nc3cnn(C)c3)ncc2NC(=O)c2ccccc2)c1 [Compound 28, N-(4-((3-acrylamidophenyl)amino)-2-((1-methyl-1H-pyrazol-4-yl)amino)pyrimidin-5-yl)benzamide] | 3.13 | 2.24 | > 10 | 3.01 |  |  |
| C=CC(=O)Nc1cccc(Nc2nc(Nc3cnn(C)c3)ncc2C(=O)NC(C)c2ccccc2)c1 (stereo not drawn) [Compound 34, 4-((3-acrylamidophenyl)amino)-2-((1-methyl-1H-pyrazol-4-yl)amino)-N-(1-phenylethyl)pyrimidine-5-carboxamide] | 9.52 | 9.31 | > 10 | > 10 |  |  |
| C=CC(=O)Nc1ccc(F)c(Nc2nc(Nc3cnn(C)c3)ncc2-c2ccc(Cl)nc2)c1 [Compound 101, N-(3-((5-(6-chloropyridin-3-yl)-2-((1-methyl-1H-pyrazol-4-yl)amino)pyrimidin-4-yl)amino)-4-fluorophenyl)acrylamide] |  | 0.013 | 0.056 | 0.03 |  |  |
| C=CC(=O)Nc1ccc(F)c(Nc2nc(Nc3cnn(C)c3)ncc2-c2cnc(C(F)(F)F)nc2)c1 [Compound 123, N-(4-fluoro-3-((2-((1-methyl-1H-pyrazol-4-yl)amino)-2′-(trifluoromethyl)-[5,5′-bipyrimidin]-4-yl)amino)phenyl)acrylamide] | 0.024 | 0.016 |  | 0.03 |  |  |
| C=CC(=O)Nc1cc(Br)cc(Nc2nc(Nc3cnn(C)c3)ncc2-c2ccc(CC(F)(F)F)cc2)c1 [Compound 302, N-(3-bromo-5-((2-((1-methyl-1H-pyrazol-4-yl)amino)-5-(4-(2,2,2-trifluoroethyl)phenyl)pyrimidin-4-yl)amino)phenyl)acrylamide] | 0.099 | 0.067 |  |  | 0.653 | 0.012 |

From patent US12686673B2 (Blueprint Medicines Corporation, priority 2020, dated 2026)
